Results from patent US20070049564A1 (Wyeth, priority 2005, published 2007).
Values after ≈ are worked out from the molar mass of the structure shown. Where two headings read alike, the source gives them in different places.

Tests used:
E. coli GC 2236 = assay: MIC, broth microdilution; details: Escherichia coli
S. agalactiae GC 4564 = assay: MIC, broth microdilution; details: Streptococcus agalactiae
E. coli GC 2271 = assay: MIC, broth microdilution; details: Escherichia coli
E. coli GC 3226 = assay: MIC, broth microdilution; details: Escherichia coli
E. coli GC 2232 = assay: MIC, broth microdilution; details: Escherichia coli
Description: (§1) Antimicrobial susceptibility testing. The in vitro activities of the antibiotics are determined by the broth microdilution method as recommended by the National Committee for Clinical Laboratory Standards (NCCLS) (1). Mueller-Hinton II broth (MHBII)(BBL Cockeysville, Md.) is the medium employed in the testing procedures. Microtiter plates containing serial dilutions of each antimicrobial agent are inoculated with each organism to yield the appropriate density (10^5 CFU/ml) in a 100 μl final volume. The plates are incubated for 18-22 hours at 35° C. in ambient air.
(§2) Representative compounds were first incubated in mouse serum for an hour prior to the in vitro testing against a panel of selected gram-positive and gram-negative bacteria strains. All compounds were also pre-incubated in water for an hour prior to testing as control. Representative compounds of Formula I were incubated in human serum prior to MIC determination.

S. pneumoniae* GC 4465 = assay: MIC, broth microdilution; details: Streptococcus pneumoniae
Staph. aureus Smith = assay: In vivo activity (oral, iv; ED50) against Staph. aureus Smith in mice
Description: Representative examples of compounds of Formula I were tested for the oral efficacy using S. aureus Smith in mice.

E. coli GC 2234 = assay: MIC, broth microdilution; details: Escherichia coli
Description: as §1
Representative compounds were first incubated in mouse serum for an hour prior to the in vitro testing against a panel of selected gram-positive and gram-negative bacteria strains. All compounds were also pre-incubated in water for an hour prior to testing as control.

S. aureus GC 1131 = assay: MIC, broth microdilution; details: Staphylococcus aureus
E. faecalis GC 2265 = assay: MIC, broth microdilution; details: Enterococcus faecalis
S. epidermidis GC 4935 = assay: MIC, broth microdilution; details: Staphylococcus epidermidis
E. faecalis GC 4555 = assay: MIC, broth microdilution; details: Enterococcus faecalis
S. pyogenes GC 4563 = assay: MIC, broth microdilution; details: Streptococcus pyogenes
E. coli GC 2203 = assay: MIC, broth microdilution; details: Escherichia coli
Description: Antimicrobial susceptibility testing. The in vitro activities of the antibiotics are determined by the broth microdilution method as recommended by the National Committee for Clinical Laboratory Standards (NCCLS) (1). Mueller-Hinton II broth (MHBII)(BBL Cockeysville, Md.) is the medium employed in the testing procedures. Microtiter plates containing serial dilutions of each antimicrobial agent are inoculated with each organism to yield the appropriate density (10^5 CFU/ml) in a 100 μl final volume. The plates are incubated for 18-22 hours at 35° C. in ambient air. […] Standard Pharmacological Test Procedures
Presented in Tables I-XIII are representative compounds of Formula I which were evaluated against a panel of 40 selected gram-positive and gram-negative bacteria strains by pre-incubation in water, mouse serum or human serum. Representative compounds were first incubated in mouse serum for an hour prior to the in vitro testing against a panel of selected gram-positive and gram-negative bacteria strains. All compounds were also pre-incubated in water for an hour prior to testing as control. Representative compounds of Formula I were incubated in human serum prior to MIC determination.

S. aureus GC 6335 = assay: MIC, broth microdilution; details: Staphylococcus aureus
S. pneumoniae+ GC 4465 = assay: MIC, broth microdilution; details: Streptococcus pneumoniae
E. coli GC 2272 = assay: MIC, broth microdilution; details: Escherichia coli
E. faecalis GC 2267 = assay: MIC, broth microdilution; details: Enterococcus faecalis
E. coli GC 4559 = assay: MIC, broth microdilution; details: Escherichia coli
Description: as §1, §2

P. aeruginosa GC 2214 = assay: MIC, broth microdilution; details: Pseudomonas aeruginosa
[1] = GC2236, pre-incubation in mouse serum
[2] = GC2236, pre-incubation in water
[3] = GC4564, pre-incubation in mouse serum
[4] = GC4564, pre-incubation in water
[5] = GC2271, pre-incubation in mouse serum
[6] = GC2271, pre-incubation in water
[7] = GC3226, pre-incubation in mouse serum
[8] = GC3226, pre-incubation in water
[9] = GC2232, pre-incubation in mouse serum
[10] = GC2232, pre-incubation in water
[11] = GC2234, pre-incubation in mouse serum
[12] = GC2234, pre-incubation in water
[13] = GC1131, pre-incubation in mouse serum
[14] = GC1131, pre-incubation in water
[15] = GC2265, pre-incubation in mouse serum
[16] = GC2265, pre-incubation in water
[17] = GC4935, pre-incubation in mouse serum
[18] = GC4935, pre-incubation in water
[19] = GC4555, pre-incubation in mouse serum
[20] = GC4555, pre-incubation in water
[21] = GC4563, pre-incubation in mouse serum
[22] = GC4563, pre-incubation in water
[23] = GC2203, pre-incubation in mouse serum
[24] = GC2203, pre-incubation in water
[25] = GC6335, pre-incubation in mouse serum
[26] = GC6335, pre-incubation in water
[27] = GC2272, pre-incubation in mouse serum
[28] = GC2272, pre-incubation in water
[29] = GC2267, pre-incubation in mouse serum
[30] = GC2267, pre-incubation in water
[31] = GC4559, pre-incubation in mouse serum
[32] = GC4559, pre-incubation in water
[33] = GC2214, pre-incubation in mouse serum
[34] = GC2214, pre-incubation in water

SMILES: CCCN(CC(=O)Nc1cc(N(C)C)c2c(c1O)C(=O)C1=C(O)[C@]3(O)C(=O)C(C(N)=O)=C(O)C(N(C)C)C3CC1C2)C(=O)OCc1oc(=O)oc1-c1ccccc1 (stereo in doubt) [Example 110, (2-oxo-5-phenyl-1,3-dioxol-4-yl)methyl 2-{[(7R,10aS)-9-(aminocarbonyl)-4,7-bis(dimethylamino)-1,8,10a,11-tetrahydroxy-10,12-dioxo-5,5a,6,6a,7,10,10a,12-octahydrotetracen-2-yl]amino}-2-oxoethyl(propyl)carbamate]
- MIC (E. coli GC 2236; [1]): 1 mg/L (≈ 1.27 µM)
- MIC (E. coli GC 2236; [2]): 2 mg/L (≈ 2.53 µM)
- MIC (S. agalactiae GC 4564; [3]): 0.25 mg/L (≈ 0.317 µM)
- MIC (S. agalactiae GC 4564; [4]): 0.25 mg/L (≈ 0.317 µM)
- MIC (E. coli GC 2271; [5]): 1 mg/L (≈ 1.27 µM)
- MIC (E. coli GC 2271; [6]): 2 mg/L (≈ 2.53 µM)
- MIC (E. coli GC 3226; [7]): 2 mg/L (≈ 2.53 µM)
- MIC (E. coli GC 3226; [8]): 4 mg/L (≈ 5.06 µM)
- MIC (E. coli GC 2232; [9]): 1 mg/L (≈ 1.27 µM)
- MIC (E. coli GC 2232; [10]): 2 mg/L (≈ 2.53 µM)
- MIC (S. pneumoniae* GC 4465; pre-incubation in mouse serum): 0.25 mg/L (≈ 0.317 µM)
- MIC (S. pneumoniae* GC 4465; pre-incubation in water): 0.12 mg/L (≈ 0.152 µM)
- ED50 (Staph. aureus Smith; Staphylococcus aureus, in Mus musculus, po, read-out: ED50 Staph Smith SOD): 31.9 mg/kg
- ED50 (Staph. aureus Smith; iv, read-out: ED50 Staph Smith SIV): 0.6 mg/kg
- MIC (E. coli GC 2234; [11]): 1 mg/L (≈ 1.27 µM)
- MIC (E. coli GC 2234; [12]): 2 mg/L (≈ 2.53 µM)
- MIC (S. aureus GC 1131; [13]): 2 mg/L (≈ 2.53 µM)
- MIC (S. aureus GC 1131; [14]): 4 mg/L (≈ 5.06 µM)
- MIC (E. faecalis GC 2265; [15]): 8 mg/L (≈ 10.1 µM)
- MIC (E. faecalis GC 2265; [16]): 4 mg/L (≈ 5.06 µM)
- MIC (S. epidermidis GC 4935; [17]): 4 mg/L (≈ 5.06 µM)
- MIC (S. epidermidis GC 4935; [18]): 8 mg/L (≈ 10.1 µM)
- MIC (E. faecalis GC 4555; [19]): 1 mg/L (≈ 1.27 µM)
- MIC (E. faecalis GC 4555; [20]): 2 mg/L (≈ 2.53 µM)
- MIC (S. pyogenes GC 4563; [21]): 0.12 mg/L (≈ 0.152 µM)
- MIC (S. pyogenes GC 4563; [22]): < 0.06 mg/L
- MIC (E. coli GC 2203; [23]): 1 mg/L (≈ 1.27 µM)
- MIC (E. coli GC 2203; [24]): 4 mg/L (≈ 5.06 µM)
- MIC (S. aureus GC 6335; [25]): 8 mg/L (≈ 10.1 µM)
- MIC (S. aureus GC 6335; [26]): 8 mg/L (≈ 10.1 µM)
- MIC (S. pneumoniae+ GC 4465; pre-incubation in mouse serum): 4 mg/L (≈ 5.06 µM)
- MIC (S. pneumoniae+ GC 4465; pre-incubation in water): 2 mg/L (≈ 2.53 µM)
- MIC (E. coli GC 2272; [27]): 1 mg/L (≈ 1.27 µM)
- MIC (E. coli GC 2272; [28]): 1 mg/L (≈ 1.27 µM)
- MIC (E. faecalis GC 2267; [29]): 8 mg/L (≈ 10.1 µM)
- MIC (E. faecalis GC 2267; [30]): 4 mg/L (≈ 5.06 µM)
- MIC (E. coli GC 4559; [31]): 2 mg/L (≈ 2.53 µM)
- MIC (E. coli GC 4559; [32]): 2 mg/L (≈ 2.53 µM)
- MIC (P. aeruginosa GC 2214; [33]): > 64 mg/L
- MIC (P. aeruginosa GC 2214; [34]): > 64 mg/L

SMILES: CN(C)c1cc(NC(=O)CN(C(=O)OCOC(=O)CCC2CCCCC2)C(C)(C)C)c(O)c2c1C[C@H]1C[C@H]3[C@H](N(C)C)C(O)=C(C(N)=O)C(=O)[C@@]3(O)C(O)=C1C2=O [Example 63, ({[(2-{[(5aR,6aS,7S,10aS)-9-(aminocarbonyl)-4,7-bis(dimethylamino)-1,8,10a,11-tetrahydroxy-10,12-dioxo-5,5a,6,6a,7,10,10a,12-octahydrotetracen-2-yl]amino}-2-oxoethyl)(tert-butyl)amino]carbonyl}oxy)methyl 3-cyclohexylpropanoate]
- MIC (E. coli GC 2236; GC2236, pre-incubation in human serum): > 64 mg/L
- MIC (E. coli GC 2236; [1]): 1 mg/L (≈ 1.25 µM)
- MIC (E. coli GC 2236; [2]): > 64 mg/L
- MIC (S. agalactiae GC 4564; GC4564, pre-incubation in human serum): 0.25 mg/L (≈ 0.313 µM)
- MIC (S. agalactiae GC 4564; [3]): 0.25 mg/L (≈ 0.313 µM)
- MIC (S. agalactiae GC 4564; [4]): 0.25 mg/L (≈ 0.313 µM)
- MIC (E. coli GC 2271; GC2271, pre-incubation in human serum): > 64 mg/L
- MIC (E. coli GC 2271; [5]): 0.5 mg/L (≈ 0.627 µM)
- MIC (E. coli GC 2271; [6]): > 64 mg/L
- MIC (E. coli GC 3226; GC3226, pre-incubation in human serum): > 64 mg/L
- MIC (E. coli GC 3226; [7]): 1 mg/L (≈ 1.25 µM)
- MIC (E. coli GC 3226; [8]): > 64 mg/L
- MIC (E. coli GC 2232; GC2232, pre-incubation in human serum): > 64 mg/L
- MIC (E. coli GC 2232; [9]): 1 mg/L (≈ 1.25 µM)
- MIC (E. coli GC 2232; [10]): > 64 mg/L
- MIC (S. pneumoniae* GC 4465; pre-incubation in human serum): 0.12 mg/L (≈ 0.15 µM)
- MIC (S. pneumoniae* GC 4465; pre-incubation in mouse serum): 0.12 mg/L (≈ 0.15 µM)
- MIC (S. pneumoniae* GC 4465; pre-incubation in water): 0.12 mg/L (≈ 0.15 µM)
- MIC (E. coli GC 2234; GC2234, pre-incubation in human serum): 64 mg/L (≈ 80.2 µM)
- MIC (E. coli GC 2234; [11]): 1 mg/L (≈ 1.25 µM)
- MIC (E. coli GC 2234; [12]): > 64 mg/L
- MIC (S. aureus GC 1131; GC1131, pre-incubation in human serum): 1 mg/L (≈ 1.25 µM)
- MIC (S. aureus GC 1131; [13]): 1 mg/L (≈ 1.25 µM)
- MIC (S. aureus GC 1131; [14]): 4 mg/L (≈ 5.01 µM)
- MIC (E. faecalis GC 2265; GC2265, pre-incubation in human serum): 2 mg/L (≈ 2.51 µM)
- MIC (E. faecalis GC 2265; [15]): 1 mg/L (≈ 1.25 µM)
- MIC (E. faecalis GC 2265; [16]): 8 mg/L (≈ 10 µM)
- MIC (S. epidermidis GC 4935; GC4935, pre-incubation in human serum): 2 mg/L (≈ 2.51 µM)
- MIC (S. epidermidis GC 4935; [17]): 2 mg/L (≈ 2.51 µM)
- MIC (S. epidermidis GC 4935; [18]): 4 mg/L (≈ 5.01 µM)
- MIC (E. faecalis GC 4555; GC4555, pre-incubation in human serum): 2 mg/L (≈ 2.51 µM)
- MIC (E. faecalis GC 4555; [19]): 1 mg/L (≈ 1.25 µM)
- MIC (E. faecalis GC 4555; [20]): 4 mg/L (≈ 5.01 µM)
- MIC (S. pyogenes GC 4563; GC4563, pre-incubation in human serum): 0.12 mg/L (≈ 0.15 µM)
- MIC (S. pyogenes GC 4563; [21]): 0.12 mg/L (≈ 0.15 µM)
- MIC (S. pyogenes GC 4563; [22]): 0.12 mg/L (≈ 0.15 µM)
- MIC (E. coli GC 2203; GC2203, pre-incubation in human serum): > 64 mg/L
- MIC (E. coli GC 2203; [23]): 1 mg/L (≈ 1.25 µM)
- MIC (E. coli GC 2203; [24]): > 64 mg/L
- MIC (S. aureus GC 6335; GC6335, pre-incubation in human serum): 1 mg/L (≈ 1.25 µM)
- MIC (S. aureus GC 6335; [25]): 1 mg/L (≈ 1.25 µM)
- MIC (S. aureus GC 6335; [26]): 4 mg/L (≈ 5.01 µM)
- MIC (S. pneumoniae+ GC 4465; pre-incubation in human serum): 0.5 mg/L (≈ 0.627 µM)
- MIC (S. pneumoniae+ GC 4465; pre-incubation in mouse serum): 0.5 mg/L (≈ 0.627 µM)
- MIC (S. pneumoniae+ GC 4465; pre-incubation in water): 0.5 mg/L (≈ 0.627 µM)
- MIC (E. coli GC 2272; GC2272, pre-incubation in human serum): > 64 mg/L
- MIC (E. coli GC 2272; [27]): 1 mg/L (≈ 1.25 µM)
- MIC (E. coli GC 2272; [28]): > 64 mg/L
- MIC (E. faecalis GC 2267; GC2267, pre-incubation in human serum): 2 mg/L (≈ 2.51 µM)
- MIC (E. faecalis GC 2267; [29]): 1 mg/L (≈ 1.25 µM)
- MIC (E. faecalis GC 2267; [30]): 16 mg/L (≈ 20.1 µM)
- MIC (E. coli GC 4559; GC4559, pre-incubation in human serum): > 64 mg/L
- MIC (E. coli GC 4559; [31]): 2 mg/L (≈ 2.51 µM)
- MIC (E. coli GC 4559; [32]): > 64 mg/L
- MIC (P. aeruginosa GC 2214; GC2214, pre-incubation in human serum): > 64 mg/L
- MIC (P. aeruginosa GC 2214; [33]): 32 mg/L (≈ 40.1 µM)
- MIC (P. aeruginosa GC 2214; [34]): > 64 mg/L
